Blank lines part the entries; values can stand above or below the compound they belong to.
Columns and labels:
[1] = system: beta amyloid (1-42) injected mice; experiment: Y-maze task, acute Alzheimer's disease model; type: in vivo; details: mice i.c.v. injected with beta amyloid (1-42), compounds administered for 2 days, test on Day 2
Description: (§1) Mice 4-5 weeks old, each weighing 20˜25 g, were divided into groups of six. Intracerebroventricular injection was performed with a 50 μl Hamilton microsyringe fitted with a disposable 26-gauge needle as described by Laursen and Belknap (Laursen & Belknap, J. Pharmacol. Methods. 1986, 16, 355). It was inserted 2.4 mm deep into the bregma. All samples were administered to groups of 10 via oral routes or food pellets. After the intracerebroventricular injection, the compounds of the present invention were administered for 2 days to the mice which were then subjected to the Y-maze test on Day 2, the cognition test on Days 2 and 3, the passive avoidance test on Days 3 and 4, and the water maze test on Days 3 to 7. All data were averages of 6 measurements (mice).
(§2) Short-term memory was assessed by spontaneous alternation behavior in the Y-maze task. Spontaneous alternation behavior is considered to reflect spatial working memory, which is a form of short-term memory. A mouse was placed in one arm of a Y-maze and allowed to freely pass the three arms for 8 min. Spontaneous alternation behavior was defined as successive entries into the three arms. Percentage spontaneous alternation was calculated as the ratio of actual to possible alternations […], multiplied by 100.

[2] = system: beta amyloid (1-42) injected mice; experiment: Cognitive performance task, acute Alzheimer's disease model; type: in vivo; set-up: Cognition % of control: concentration or dose not given beside the values; details: for Cognition Preference (investigation time for new matter/total investigation time): mice i.c.v. injected with beta amyloid (1-42), test on Days 2 and 3; for Cognition % of control: preference relative to control mice
Description: as §1
(§3) For the cognitive performance task, two identical substances were respectively placed 5 cm apart from two corners and the time it took for a mouse to investigate the given and new substances was measured. Investigation was defined as the condition in which a mouse sniffed with the head directing toward the substance within a diameter of 2 cm or touched the substance.

[3] = system: beta amyloid (1-42) injected mice; experiment: Passive avoidance test, acute Alzheimer's disease model; type: in vivo; set-up: Passive Avoidance % of control: concentration or dose not given beside the values; details: for Passive Avoidance % of control: latency relative to control mice; for Passive Avoidance Latency: mice i.c.v. injected with beta amyloid (1-42), test on Days 3 and 4, 24 hours after training
Description: as §1
(§4) A passive avoidance test was performed as described in the literature (Song et al. J. Neurochem., 1998, 71, 875). Used was a passive avoidance box which was divided into two compartments: a lighted one and a dark one, separated by an automatic guillotine door. For training, mice were placed in the lighted compartment and electrically shocked with 0.25 mA for 1 sec whenever they entered the darkened compartment. 24 hours after training, the mice were placed in the lighted compartment and measured for latency time before entering the darkened compartment.

[4] = system: beta amyloid (1-42) injected mice; experiment: Water maze test, acute Alzheimer's disease model; type: in vivo; details: mice injected with beta amyloid (1-42), Days 3 to 7
Description: as §1
In a water maze test, a mouse, when released from a randomly selected quadrant on each trial, was allowed to swim around the pool in search of an exit while the time taken to reach the platform (latency) was recorded.

beta amyloid (1-42) [5] = target: beta amyloid (1-42) (Homo sapiens, UniProt P05067); experiment: Inhibitory activity against beta amyloid fibril formation (ThT fluorescence); type: biochemical; details: for remaining activity at 10 µM: compound 10 μM, beta amyloid (1-42) 25 μM, 1 hr room temperature, beta amyloid alone (control) = 100
Description: The compounds of the present invention were assayed for inhibitory activity against the formation of beta amyloid fibrils as a function of ThT fluorescence intensity as follows. Beta amyloid (1-42) and each of the compounds of Examples 1 to 27 were dissolved in DMSO and diluted with PBS (phosphate-buffered saline, pH 7.4). The final concentrations of beta amyloid (1-42) (control) and each of the compounds of Examples 1 to 27 were set at 25 μM and 10 μM, respectively. The dilutions were incubated at room temperature for 1 hr before a solution of thioflavin T (ThT, 5 μM, pH 8.5) in glycin-NaOH buffer was added thereto. Fluorescence was measured at 450 nm for excitation (slit 10 nm) and […] for emission (slit 10 nm) on 96-well microplates using a multilabel fluorescence counter.

HT-22 cells = experiment: Cytotoxicity in HT-22 cell (MTT); type: cell-based, murine; details: compound 25 μM, 18 hrs
Description: The following experiment was performed with HT-22 cells in order to examine the cytotoxicity of the compounds of the Examples in accordance with the present invention.
(§5) The murine hippocampal neuronal cell line HT-22 was incubated at 37° C. in DMEM (Dulbecco's Modified Eagle's Medium) supplemented with 10% FBS (fetal bovine serum) and 1% penicillin/streptomycin in a 5% CO2 incubator. Before testing, HT-22 cells were seeded at a density of 5×10^3 cells/well onto 96-well plates containing serum-free DMEM and incubated for 1 hr. Afterwards, each of the compounds of Examples 1 to 27 was added at a concentration of 25 μM to each well before incubation for 18 hrs. 5 mg/ml MTT (3-(4,5-dimethyl-2-thiozolyl)-2,5-diphenyl-2H-tetrazolium bromide) solution was added in an amount of 15 μl per well and incubated for 4 hrs. A solubilization solution (10% SDS, 50% dimethylformamide, pH 4.7) was added in an amount of 100 μl to each well, followed by incubation for 18 hrs. Absorbance at 570 nm/630 nm was read on a microplate reader.

[6] = system: HT-22 cells incubated with beta amyloid (Aβ25-35); experiment: Alleviating effect on beta amyloid toxicity in HT-22 cells (MTT); type: cell-based, murine; details: Mus musculus, compound pre-incubated 1 hr, then 25 μM beta amyloid (Aβ25-35) for 18 hrs, Aβ25-35 line = toxin alone, read-out: Cell Survival (%)
Description: as §5
The following experiment was performed in order to examine the ability of the compounds of the Examples in accordance with the present invention to alleviate beta amyloid toxicity. HT-22 cells were cultured and incubated with the compounds of Examples 1 to 27 for 1 hr in the same manner as in Example 2. Cell necrosis was induced by beta amyloid toxicity. For this, the cells were incubated with 25 μM of beta amyloid (Aβ25-35) for 18 hrs. Subsequently, a 5 mg/ml MTT solution was added in an amount of 15 μl to each well, followed by incubation for 4 hrs. Then, the cells were again incubated for 18 hrs with 100 μl/well of the solubilization solution. Absorbance at 570 nm/630 nm was read on a microplate reader.

[7] = system: beta amyloid (1-42) injected mice; experiment: Behavior tests with acute AD model taken together (Y-maze, cognitive performance, passive avoidance); type: in vivo; details: for Memory and learning of beta amyloid (1-42) injected mice (in words): data of Table 6, with statistical significance
Description: as §1, §2, §3, §4

[8] = system: double transgenic mice with mutations in both APP and presenilin 1; experiment: Y-maze task and cognitive performance tests in transgenic mice; type: in vivo; details: food pellets (3 mg/pellet) for 2 months, 10 month old transgenic mice
Description: (§6) Double transgenic mice with mutations in both APP and presenilin 1 were used for the tests. The double transgenic mice, each weighing 26-39 g, were eight months old. They were divided into groups of 10 and administered for 2 to 3 months with the compound of Example 1 through food pellets (3 mg/pellet) before conducting the behavior tests.
After administration of the compound of Example 1 for 2 months (for 10 month old mice), the mice were tested for learning and memory through the Y-maze task and cognitive performance tests.

[9] = system: double transgenic mice with mutations in both APP and presenilin 1; experiment: Context fear conditioning in transgenic mice; type: in vivo
Description: as §6
A memory test was performed in context fear conditioning. Five trials of tone-shock pairing of CS-US (conditioned stimulus-unconditioned stimulus) were given to mice. On the next day, the mice were left in the stimulated context under no stimulus conditions and observed for freezing. […] During the test, there was no difference in average body weight between the two groups.

amyloid plaques = experiment: Amyloid plaque counts (Congo red) in cerebra of transgenic mice; type: in vivo; details: cerebral cortex and hippocampus, 11 months old transgenic mice, versus control
Description: (§7) In order to examine whether this effect resulted from inhibitory activity against the deposition of beta amyloid or from a decrease in the level of beta amyloid, the cerebra of the transgenic mice were immunohistochemically analyzed. In this regard, after being removed from the transgenic mice which were 11 months old upon completion of the behavior test, the right cerebral hemispheres were measured for amyloid plaque levels in the cerebral cortex and hippocampus using an immunostaining or ELISA (Enzyme-linked immunosorbent assay) method.
(§8) Amyloid plaques were stained with Congo red and counted. […] FIG. 4D gives neuronal cell count data, showing a larger crowd in the group treated with the compound of Example 1.

beta amyloid (1-40) = experiment: ELISA for beta amyloid (1-40) in cerebra of transgenic mice; type: in vivo; details: 11 months old transgenic mice, versus control
Description: as §7, §8

beta amyloid (1-42) [10] = experiment: ELISA for beta amyloid (1-42) in cerebra of transgenic mice; type: in vivo; details: 11 months old transgenic mice, versus control
Description: as §7, §8

neurons = experiment: Neuronal cell count in cerebra of transgenic mice; type: in vivo; details: 11 months old transgenic mice, versus control
Description: as §7, §8

[11] = compared to beta amyloid (1-42) injected mice, % of control

beta amyloid (1-42) (Homo sapiens, UniProt P05067), sequence (P05067 672-713 limits assumed): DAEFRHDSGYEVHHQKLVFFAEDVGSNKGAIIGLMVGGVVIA

Compound: Aβ1-42: beta amyloid peptide of 42 amino acids, injected intracerebroventricularly into mice to induce acute Alzheimer's disease [reference compound]
- Y-Maze Spontaneous Alternation (%) [1]: 61.6%
- Reduction of preference for the new matter compared to the control ([2]; beta amyloid (1-42) injected mice): about 16%
- Cognition Preference (investigation time for new matter/total investigation time) [2]: 0.54 ± 0.02
- Cognition % of control [2]: 84%
- Passive Avoidance % of control [3]: 50.4%
- Passive Avoidance % of control ([3]; listed as beta amyloid (1-42)): about 50%
- Passive Avoidance Latency [3]: 89.9 s
- Spatial learning ability in water maze (latency over sessions), FIG. 1 [4]: deficient in spatial memory

Compound: COc1ccc(/C=C/c2cc(/C=C/c3ccc(OC)c(O)c3)ncn2)cc1O [Ex. 1, (E,E)-4,6-Bis(3′-hydroxy-4′-methoxystyryl)pyrimidine]
- remaining activity at 10 µM (beta amyloid (1-42) [5]): 19.1 ± 0.6%
- Cell Survival (%) (HT-22 cells): 135.6 ± 6.1%
- viability at 25 µM [6]: 91.8 ± 8.8%
- Y-Maze Spontaneous Alternation (%) [1]: 72.2%
- Cognition Preference (investigation time for new matter/total investigation time) [2]: 0.59 ± 0.03
- Cognition % of control [2]: 92%
- Improvement in passive avoidance performance [3, 11]: highest improvement
- Passive Avoidance % of control [3]: 80.9%
- Passive Avoidance Latency [3]: 144.2 s
- Spatial learning ability in water maze (latency over sessions), FIG. 1 [4]: recover spatial learning ability
- Learning and memory improvement, dose dependence, FIG. 2 ([7]; 50, 100, 200 mg/kg p.o., Y-maze, cognitive performance, passive avoidance): dose-dependent manner
- Memory and learning of beta amyloid (1-42) injected mice (in words) [7]: increased memory
- Learning and memory in Y-maze and cognitive performance, FIGS. 3A and 3B [8]: memory impairment was alleviated
- Average body weight ([9]; transgenic mice during the test, treated versus control group): no difference
- Freezing in context fear conditioning, FIG. 3C ([9]; transgenic mice, compared to control): longer time freezing
- Counts of amyloid plaques stained with Congo red, FIG. 4A (amyloid plaques): smaller
- Level of beta amyloid (1-40), ELISA, FIG. 4B (beta amyloid (1-40)): decreasing pattern
- Level of beta amyloid (1-42), ELISA, FIG. 4C (beta amyloid (1-42) [10]): decreasing pattern
- Neuronal cell count, FIG. 4D (neurons): larger crowd

Compound: COc1cc(/C=C/c2cc(/C=C/c3ccc(O)c(OC)c3)ncn2)ccc1O [Ex. 6, (E,E)-4,6-bis(4′-hydroxy-3′-methoxystyryl)pyrimidine]
- remaining activity at 10 µM (beta amyloid (1-42) [5]): 20.7 ± 5.4%
- Cell Survival (%) (HT-22 cells): 215.6 ± 3.5%
- viability at 25 µM [6]: 103 ± 13%
- Y-Maze Spontaneous Alternation (%) [1]: 67.9%
- Recovery of preference for the new matter [2, 11]: about 11%
- Cognition Preference (investigation time for new matter/total investigation time) [2]: 0.61 ± 0.03
- Cognition % of control [2]: 95%
- Passive Avoidance % of control [3]: 78.1%
- Passive Avoidance Latency [3]: 139.2 s
- Spatial learning ability in water maze (latency over sessions), FIG. 1 [4]: recover spatial learning ability
- Memory and learning of beta amyloid (1-42) injected mice (in words) [7]: increased memory

The next lines start with results.

- remaining activity at 10 µM (beta amyloid (1-42) [5]): 16.5 ± 2.6%
Compound: CN(C)c1cc(/C=C/c2cc(/C=C/c3ccc(O)c(N(C)C)c3)ncn2)ccc1O [Ex. 2, (E,E)-4,6-Bis[4′-hydroxy-3′-(N,N-dimethylamino)styryl]pyrimidine]
- Cell Survival (%) (HT-22 cells): 146.2 ± 26.6%
- viability at 25 µM [6]: 85.3 ± 0.1%
- Y-Maze Spontaneous Alternation (%) [1]: 71.3%
- Cognition Preference (investigation time for new matter/total investigation time) [2]: 0.53 ± 0.05
- Cognition % of control [2]: 82%
- Passive Avoidance % of control [3]: 66.1%
- Passive Avoidance Latency [3]: 117.8 s
- Spatial learning ability in water maze (latency over sessions), FIG. 1 [4]: recover spatial learning ability
- Memory and learning of beta amyloid (1-42) injected mice (in words) [7]: increased memory

- Inhibitory activity against fibril formation (in words) (beta amyloid (1-42) [5]; Table 3): remarkable inhibitory activity
- remaining activity at 10 µM (beta amyloid (1-42) [5]): 6.3 ± 1.8%
Compound: CN(C)c1ccc(/C=C/c2cc(/C=C/c3ccc(N(C)C)c(O)c3)ncn2)cc1O [Ex. 7, (E,E)-4,6-bis[3′-hydroxy-4′-(N,N-dimethylamino)styryl]pyrimidine]
- Cell Survival (%) (HT-22 cells): 132.8 ± 41.1%
- viability at 25 µM [6]: 76.6 ± 12.1%
- Y-Maze Spontaneous Alternation (%) [1]: 67.0%
- Cognition Preference (investigation time for new matter/total investigation time) [2]: 0.57 ± 0.02
- Cognition % of control [2]: 89%
- Passive Avoidance % of control [3]: 68.7%
- Passive Avoidance Latency [3]: 122.5 s
- Spatial learning ability in water maze (latency over sessions), FIG. 1 [4]: recover spatial learning ability
- Memory and learning of beta amyloid (1-42) injected mice (in words) [7]: increased memory

Reference: patent publication US8410116B2, “Bis(styryl)pyrimidine or bis(styryl)benzene compounds, pharmaceutically acceptable salts thereof, preparation method thereof, and pharmaceutical composition for prevention or treatment of diseases featuring amyloids comprising the same as an active ingredient” (Korea Institute of Science and Technology, priority 2009, dated 2013)
